The values below come from patent publication US20250243171A1, “QUINAZOLINE COMPOUNDS FOR TREATMENT OF DISEASE” (Arthrosi Therapeutics, Inc., priority 2021, published 2025).

What all share (assay): EC50 assay: Ba/F3 stable cell proliferation (CCK-8, 72 h)
Holding throughout (type): cell-based

The target of experiment [1] is T1, Ba/F3 stable cells (Homo sapiens, UniProt P00533, INS763FQEA, cells depend on it).
T1 construct: EC50 Ba/F3-EGFR A763-Y764insFQEA; other: Ba/F3-EGFR A763-Y764insFQEA cells, 72 h, CCK-8
As to conditions: Ba/F3-EGFR A763-Y764insFQEA cells. Summed up:
(§1)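 Ba/F3 stable cells were seeded at 4,000 cells/90 μL/well in 96-well plates and held 2 h at 37° C. in 5% CO2, then given 10 μL of serially titrated compound (0.1% DMSO final). After 72 h at 37° C., CCK-8 reagent was added for 4 hours and absorbance read at 450 nm to derive EC50.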

In experiment [2] the target is T2, Ba/F3 stable cells (Homo sapiens, UniProt P04626, DUP772-775, cells depend on it).
T2 construct: EC50 Ba/F3-HER2 A775-G776insYVMA; other: Ba/F3-HER2 A775-G776insYVMA cells, 72 h, CCK-8
To be noted: Ba/F3-HER2 A775-G776insYVMA cells. Put shortly:
as §1

The target in experiment [3] is T3, Ba/F3 stable cells (Homo sapiens, UniProt P00533, DUP771-773, cells depend on it).
T3 construct: EC50 Ba/F3-EGFR H773-V774insNPH; other: Ba/F3-EGFR H773-V774insNPH cells, 72 h, CCK-8
To be noted: Ba/F3-EGFR H773-V774insNPH cells. Put shortly: as §1

Experiment [4] deals with T4, Ba/F3 stable cells (Homo sapiens, UniProt P00533, T790M/L858R, cells depend on it).
T4 construct: EC50 Ba/F3-EGFR L858R-T790M; other: Ba/F3-EGFR L858R-T790M cells, 72 h, CCK-8
To be noted: Ba/F3-EGFR L858R-T790M cells. Summed up: as §1

Experiment [5] addresses T5, Ba/F3 stable cells (Homo sapiens, UniProt P00533, DUP768-770, cells depend on it).
T5 construct: EC50 Ba/F3-EGFR D770-N771insSVD; other: Ba/F3-EGFR D770-N771insSVD cells, 72 h, CCK-8
To be noted: Ba/F3-EGFR D770-N771insSVD cells. Put shortly:
as §1

Experiment [6] deals with T6, Ba/F3 stable cells (Homo sapiens, UniProt P00533, DUP767-769, cells depend on it).
T6 construct: EC50 Ba/F3-EGFR V769-D770insASV; other: Ba/F3-EGFR V769-D770insASV cells, 72 h, CCK-8
As to conditions: Ba/F3-EGFR V769-D770insASV cells. Put shortly: as §1

T5 sequence (P00533 with tags, fused parts or gaps DUP768-770): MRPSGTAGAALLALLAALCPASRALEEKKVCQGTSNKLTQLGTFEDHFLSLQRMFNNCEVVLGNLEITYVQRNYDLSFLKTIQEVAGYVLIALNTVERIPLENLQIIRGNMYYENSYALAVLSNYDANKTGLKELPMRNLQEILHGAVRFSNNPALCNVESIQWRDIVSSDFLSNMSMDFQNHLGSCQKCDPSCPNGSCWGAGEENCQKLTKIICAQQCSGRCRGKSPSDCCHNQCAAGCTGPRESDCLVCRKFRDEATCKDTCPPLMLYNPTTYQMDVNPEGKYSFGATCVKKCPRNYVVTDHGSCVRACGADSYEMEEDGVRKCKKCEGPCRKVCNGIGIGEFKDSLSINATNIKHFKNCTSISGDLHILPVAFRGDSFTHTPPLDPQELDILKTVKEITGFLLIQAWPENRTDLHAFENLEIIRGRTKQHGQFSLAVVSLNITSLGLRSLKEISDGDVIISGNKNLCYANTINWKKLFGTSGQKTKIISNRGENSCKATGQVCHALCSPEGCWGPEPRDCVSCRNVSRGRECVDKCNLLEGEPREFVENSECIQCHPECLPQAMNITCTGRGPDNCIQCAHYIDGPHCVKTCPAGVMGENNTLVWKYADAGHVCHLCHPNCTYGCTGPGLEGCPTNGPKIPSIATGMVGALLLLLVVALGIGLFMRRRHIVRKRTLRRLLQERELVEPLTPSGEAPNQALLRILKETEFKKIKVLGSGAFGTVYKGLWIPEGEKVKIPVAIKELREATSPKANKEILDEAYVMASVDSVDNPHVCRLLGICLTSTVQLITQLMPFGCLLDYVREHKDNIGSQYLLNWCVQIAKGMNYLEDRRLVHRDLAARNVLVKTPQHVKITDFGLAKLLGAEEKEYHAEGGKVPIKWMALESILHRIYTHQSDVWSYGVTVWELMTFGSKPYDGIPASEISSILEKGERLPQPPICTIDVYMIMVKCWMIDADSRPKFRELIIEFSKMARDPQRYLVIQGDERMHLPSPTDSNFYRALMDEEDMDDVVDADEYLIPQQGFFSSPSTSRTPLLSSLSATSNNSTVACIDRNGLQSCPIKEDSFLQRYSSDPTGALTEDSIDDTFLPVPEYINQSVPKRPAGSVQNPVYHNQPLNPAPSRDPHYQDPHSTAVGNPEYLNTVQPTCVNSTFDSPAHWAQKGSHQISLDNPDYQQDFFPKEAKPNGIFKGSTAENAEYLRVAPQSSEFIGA
T2 sequence (P04626 with tags, fused parts or gaps DUP772-775): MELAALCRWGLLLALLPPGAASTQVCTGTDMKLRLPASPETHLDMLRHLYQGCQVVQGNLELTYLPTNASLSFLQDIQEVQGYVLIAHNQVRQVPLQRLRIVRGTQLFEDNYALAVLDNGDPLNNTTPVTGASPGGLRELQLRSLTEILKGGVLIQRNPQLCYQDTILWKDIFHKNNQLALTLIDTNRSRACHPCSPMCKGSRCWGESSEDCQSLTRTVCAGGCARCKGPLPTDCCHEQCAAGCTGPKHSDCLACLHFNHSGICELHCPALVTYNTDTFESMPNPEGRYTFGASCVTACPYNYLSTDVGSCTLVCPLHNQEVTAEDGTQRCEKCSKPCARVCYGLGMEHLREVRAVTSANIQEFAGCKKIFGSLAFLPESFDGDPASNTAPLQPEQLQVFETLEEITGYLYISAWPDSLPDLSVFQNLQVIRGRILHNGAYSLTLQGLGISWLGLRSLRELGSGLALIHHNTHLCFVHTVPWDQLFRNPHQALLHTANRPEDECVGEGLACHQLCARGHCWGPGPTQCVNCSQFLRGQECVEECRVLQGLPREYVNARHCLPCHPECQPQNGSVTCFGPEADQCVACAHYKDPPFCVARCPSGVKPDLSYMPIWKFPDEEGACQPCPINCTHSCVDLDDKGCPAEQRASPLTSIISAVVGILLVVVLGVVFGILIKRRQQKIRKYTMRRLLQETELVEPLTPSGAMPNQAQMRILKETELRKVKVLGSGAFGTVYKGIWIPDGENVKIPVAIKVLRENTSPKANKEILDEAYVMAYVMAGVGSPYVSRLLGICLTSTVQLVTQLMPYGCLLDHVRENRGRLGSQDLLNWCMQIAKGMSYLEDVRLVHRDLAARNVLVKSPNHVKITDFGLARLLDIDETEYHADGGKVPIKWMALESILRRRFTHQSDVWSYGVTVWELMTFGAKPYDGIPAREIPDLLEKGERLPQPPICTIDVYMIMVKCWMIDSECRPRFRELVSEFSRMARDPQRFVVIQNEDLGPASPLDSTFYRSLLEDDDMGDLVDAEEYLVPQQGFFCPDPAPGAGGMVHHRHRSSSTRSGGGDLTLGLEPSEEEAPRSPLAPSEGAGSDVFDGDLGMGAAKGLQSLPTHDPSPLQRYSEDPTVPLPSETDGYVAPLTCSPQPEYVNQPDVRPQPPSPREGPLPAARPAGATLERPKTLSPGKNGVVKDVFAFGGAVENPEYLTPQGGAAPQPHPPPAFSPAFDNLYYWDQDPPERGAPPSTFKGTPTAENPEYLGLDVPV
T3 sequence (P00533 with tags, fused parts or gaps DUP771-773): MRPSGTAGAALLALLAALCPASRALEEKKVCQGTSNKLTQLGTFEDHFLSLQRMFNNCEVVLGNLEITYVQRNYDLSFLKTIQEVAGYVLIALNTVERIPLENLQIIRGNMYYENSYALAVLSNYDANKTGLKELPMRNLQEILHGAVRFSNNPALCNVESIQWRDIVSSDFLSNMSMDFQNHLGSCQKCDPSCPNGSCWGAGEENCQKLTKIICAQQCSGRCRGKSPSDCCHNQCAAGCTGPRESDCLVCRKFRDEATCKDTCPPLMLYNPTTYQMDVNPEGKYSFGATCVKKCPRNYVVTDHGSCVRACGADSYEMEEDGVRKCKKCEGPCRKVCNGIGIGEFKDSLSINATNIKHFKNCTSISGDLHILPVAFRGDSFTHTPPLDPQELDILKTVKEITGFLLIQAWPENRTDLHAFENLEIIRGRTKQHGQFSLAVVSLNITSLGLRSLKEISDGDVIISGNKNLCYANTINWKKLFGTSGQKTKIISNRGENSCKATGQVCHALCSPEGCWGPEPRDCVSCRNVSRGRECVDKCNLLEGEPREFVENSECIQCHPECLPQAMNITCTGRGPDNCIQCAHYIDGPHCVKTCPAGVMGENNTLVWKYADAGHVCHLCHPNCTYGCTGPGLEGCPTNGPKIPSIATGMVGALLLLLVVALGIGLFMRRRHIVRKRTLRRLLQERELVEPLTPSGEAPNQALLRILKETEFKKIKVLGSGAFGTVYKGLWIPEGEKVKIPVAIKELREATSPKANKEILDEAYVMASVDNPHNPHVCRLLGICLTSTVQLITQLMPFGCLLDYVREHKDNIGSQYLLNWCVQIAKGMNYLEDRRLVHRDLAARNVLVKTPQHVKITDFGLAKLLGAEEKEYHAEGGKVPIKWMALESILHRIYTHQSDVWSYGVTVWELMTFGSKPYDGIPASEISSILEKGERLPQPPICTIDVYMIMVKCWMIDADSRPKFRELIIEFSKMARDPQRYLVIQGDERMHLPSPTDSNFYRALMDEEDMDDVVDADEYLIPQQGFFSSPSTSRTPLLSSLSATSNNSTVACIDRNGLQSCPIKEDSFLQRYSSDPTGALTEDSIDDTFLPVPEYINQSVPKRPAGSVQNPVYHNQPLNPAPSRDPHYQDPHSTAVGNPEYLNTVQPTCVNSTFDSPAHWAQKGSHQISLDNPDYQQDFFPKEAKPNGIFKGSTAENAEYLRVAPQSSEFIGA
T1 sequence (P00533 with tags, fused parts or gaps INS763FQEA): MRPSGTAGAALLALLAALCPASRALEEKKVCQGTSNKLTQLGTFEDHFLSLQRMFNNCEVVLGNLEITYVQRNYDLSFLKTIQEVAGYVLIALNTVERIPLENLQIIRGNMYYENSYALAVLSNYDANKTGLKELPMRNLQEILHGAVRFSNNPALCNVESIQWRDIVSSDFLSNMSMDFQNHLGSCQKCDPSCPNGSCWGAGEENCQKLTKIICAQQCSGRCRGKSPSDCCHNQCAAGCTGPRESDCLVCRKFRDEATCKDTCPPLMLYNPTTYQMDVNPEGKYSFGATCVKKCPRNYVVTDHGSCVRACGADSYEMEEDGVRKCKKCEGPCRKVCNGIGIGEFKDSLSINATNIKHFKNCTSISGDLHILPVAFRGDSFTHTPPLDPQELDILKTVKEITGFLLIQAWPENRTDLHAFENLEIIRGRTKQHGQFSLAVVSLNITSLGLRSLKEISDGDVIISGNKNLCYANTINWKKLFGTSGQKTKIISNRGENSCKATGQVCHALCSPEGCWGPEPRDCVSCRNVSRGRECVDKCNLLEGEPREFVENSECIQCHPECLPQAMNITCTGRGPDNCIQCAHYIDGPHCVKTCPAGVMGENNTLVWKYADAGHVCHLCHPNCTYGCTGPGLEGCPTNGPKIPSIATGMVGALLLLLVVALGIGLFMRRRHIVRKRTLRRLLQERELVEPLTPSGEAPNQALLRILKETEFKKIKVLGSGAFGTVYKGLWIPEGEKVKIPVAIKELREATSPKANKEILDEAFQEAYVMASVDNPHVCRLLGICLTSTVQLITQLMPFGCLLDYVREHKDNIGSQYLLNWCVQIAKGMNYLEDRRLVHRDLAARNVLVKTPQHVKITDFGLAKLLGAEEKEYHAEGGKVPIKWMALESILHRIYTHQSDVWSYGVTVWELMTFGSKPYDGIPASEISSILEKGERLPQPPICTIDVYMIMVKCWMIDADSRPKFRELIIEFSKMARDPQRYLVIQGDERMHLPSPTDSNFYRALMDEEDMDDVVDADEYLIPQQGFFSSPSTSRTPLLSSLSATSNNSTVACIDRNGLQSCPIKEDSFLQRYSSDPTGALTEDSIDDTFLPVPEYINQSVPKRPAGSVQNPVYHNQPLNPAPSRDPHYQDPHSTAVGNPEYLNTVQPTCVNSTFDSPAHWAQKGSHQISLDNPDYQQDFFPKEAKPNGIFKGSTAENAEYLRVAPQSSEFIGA

Usually EC50 stands for the concentration giving half of the maximal effect. The low end stands for greater potency, the high end for weaker potency. Consider `C=CC(=O)N1CCC(Oc2cc3c(Nc4ccc5[nH]ccc5c4)ncnc3cc2OC)CC1` [Compound 169, 1-(4-((4-((1H-indol-5-yl)amino)-7-methoxyquinazolin-6-yl)oxy)piperidin-1-yl)prop-2-en-1-one], for which the EC50 at Ba/F3 stable cells [1] is ≤ 200 nM; on Ba/F3 stable cells [2] it was ≤ 200 nM; at Ba/F3 stable cells [3], ≤ 200 nM; at Ba/F3 stable cells [4], 200 to 1000 nM; at Ba/F3 stable cells [5] it was 200 to 1000 nM; at Ba/F3 stable cells [6], ≤ 200 nM.

For the compound `C=CC(=O)N1CCC(Oc2cc3c(Nc4ccc5c(ccn5C)c4)ncnc3cc2OC)CC1` [Compound 170, 1-(4-((7-methoxy-4-((1-methyl-1H-indol-5-yl)amino)quinazolin-6-yl)oxy)piperidin-1-yl)prop-2-en-1-one], the EC50 at Ba/F3 stable cells [1] is ≤ 200 nM; on Ba/F3 stable cells [2], 200 to 1000 nM; at Ba/F3 stable cells [3], 200 to 1000 nM; at Ba/F3 stable cells [4], ≤ 200 nM; at Ba/F3 stable cells [5] it was > 1000 nM; at Ba/F3 stable cells [6] it was 200 to 1000 nM.

For `C=CC(=O)N1CCC(Oc2cc3c(NCc4ccc(F)cc4)ncnc3cc2OC)CC1` [Compound 172, 1-(4-((4-((4-fluorobenzyl)amino)-7-methoxyquinazolin-6-yl)oxy)piperidin-1-yl)prop-2-en-1-one], the 50% effective concentration (EC50) on Ba/F3 stable cells [1] is ≤ 200 nM; on Ba/F3 stable cells [2], ≤ 200 nM; on Ba/F3 stable cells [3], 200 to 1000 nM; on Ba/F3 stable cells [4] it was > 1000 nM; at Ba/F3 stable cells [5], 200 to 1000 nM; at Ba/F3 stable cells [6], ≤ 200 nM.

Turning to `C=CC(=O)N1CCC(Oc2cc3c(N[C@H](C)c4ccc(F)cc4)ncnc3cc2OC)CC1` [Compound 173, (R)-1-(4-((4-((1-(4-fluorophenyl)ethyl)amino)-7-methoxyquinazolin-6-yl)oxy)piperidin-1-yl)prop-2-en-1-one], the EC50 at Ba/F3 stable cells [1] was ≤ 200 nM; on Ba/F3 stable cells [2], > 1000 nM; on Ba/F3 stable cells [3], 200 to 1000 nM; on Ba/F3 stable cells [4], > 1000 nM; on Ba/F3 stable cells [5], > 1000 nM; at Ba/F3 stable cells [6] it was ≤ 200 nM.

With `C=CC(=O)N1CCC(Oc2cc3c(C(=O)c4ccc(OC)cc4)ncnc3cc2OC)CC1` [Compound 174, 1-(4-((7-methoxy-4-(4-methoxybenzoyl)quinazolin-6-yl)oxy)piperidin-1-yl)prop-2-en-1-one], the EC50 at Ba/F3 stable cells [1], at Ba/F3 stable cells [2], at Ba/F3 stable cells [3], on Ba/F3 stable cells [4], on Ba/F3 stable cells [5] and on Ba/F3 stable cells [6] was > 1000 nM throughout.

For the compound `C=CC(=O)N1CCC(Oc2cc3c(C(=O)c4ccc(Cl)c(Cl)c4F)ncnc3cc2OC)CC1` [Compound 175, 1-(4-((4-(3,4-dichloro-2-fluorobenzoyl)-7-methoxyquinazolin-6-yl)oxy)piperidin-1-yl)prop-2-en-1-one], the EC50 is ≤ 200 nM on Ba/F3 stable cells [1]; 200 to 1000 nM on Ba/F3 stable cells [2]; ≤ 200 nM on Ba/F3 stable cells [3]; 200 to 1000 nM on Ba/F3 stable cells [4]; 200 to 1000 nM at Ba/F3 stable cells [5]; ≤ 200 nM at Ba/F3 stable cells [6].

Turning to `C=CC(=O)N1C2CCCC1CC(Oc1cc3c(Nc4ccc(Cl)c(Cl)c4F)ncnc3cc1OC)C2` (stereo not drawn) [Compound 176, 1-(3-((4-((3,4-dichloro-2-fluorophenyl)amino)-7-methoxyquinazolin-6-yl)oxy)-9-azabicyclo[3.3.1]nonan-9-yl)prop-2-en-1-one], the EC50 at Ba/F3 stable cells [1], on Ba/F3 stable cells [2], at Ba/F3 stable cells [3], on Ba/F3 stable cells [4], at Ba/F3 stable cells [5] and on Ba/F3 stable cells [6] was ≤ 200 nM in each case.

Regarding `C=CC(=O)N1C2CCC1CC(Oc1cc3c(Nc4ccc(Cl)c(Cl)c4F)ncnc3cc1OC)C2` (stereo not drawn) [Compound 177, 1-(3-((4-((3,4-dichloro-2-fluorophenyl)amino)-7-methoxyquinazolin-6-yl)oxy)-8-azabicyclo[3.2.1]octan-8-yl)prop-2-en-1-one], the EC50 on Ba/F3 stable cells [1], at Ba/F3 stable cells [2], at Ba/F3 stable cells [3], on Ba/F3 stable cells [4], on Ba/F3 stable cells [5] and at Ba/F3 stable cells [6] was ≤ 200 nM each time.

For `C=CC(=O)N1C2CCCC1CC(Oc1cc3c(Nc4cccc5ccccc45)ncnc3cc1OC)C2` (stereo not drawn) [Compound 178, 1-(3-((7-methoxy-4-(naphthalen-1-ylamino)quinazolin-6-yl)oxy)-9-azabicyclo[3.3.1]nonan-9-yl)prop-2-en-1-one], the EC50 on Ba/F3 stable cells [1] was ≤ 200 nM; at Ba/F3 stable cells [2], ≤ 200 nM; on Ba/F3 stable cells [3], ≤ 200 nM; at Ba/F3 stable cells [4], ≤ 200 nM; at Ba/F3 stable cells [5] it was 200 to 1000 nM; at Ba/F3 stable cells [6] it was ≤ 200 nM.

Take `C=CC(=O)N1C2CCCC1CC(Oc1cc3c(Nc4ccc5ccccc5c4)ncnc3cc1OC)C2` (stereo not drawn) [Compound 179, 1-(3-((7-methoxy-4-(naphthalen-2-ylamino)quinazolin-6-yl)oxy)-9-azabicyclo[3.3.1]nonan-9-yl)prop-2-en-1-one]: the EC50 at Ba/F3 stable cells [1] was ≤ 200 nM; on Ba/F3 stable cells [2], ≤ 200 nM; on Ba/F3 stable cells [3], ≤ 200 nM; on Ba/F3 stable cells [4] it was ≤ 200 nM; at Ba/F3 stable cells [5] it was 200 to 1000 nM; on Ba/F3 stable cells [6], ≤ 200 nM.

In the case of `C=CC(=O)N1C2CCC1CC(Oc1cc3c(Nc4ccc5ccccc5c4)ncnc3cc1OC)C2` (stereo not drawn) [Compound 180, 1-(3-((7-methoxy-4-(naphthalen-2-ylamino)quinazolin-6-yl)oxy)-8-azabicyclo[3.2.1]octan-8-yl)prop-2-en-1-one], the EC50 at Ba/F3 stable cells [1], on Ba/F3 stable cells [2], on Ba/F3 stable cells [3], on Ba/F3 stable cells [4], on Ba/F3 stable cells [5] and at Ba/F3 stable cells [6] was ≤ 200 nM throughout.

For the compound `C=CC(=O)N1C2CCC1CC(Oc1cc3c(Nc4cccc5ccccc45)ncnc3cc1OC)C2` (stereo not drawn) [Compound 181, 1-(3-((7-methoxy-4-(naphthalen-1-ylamino)quinazolin-6-yl)oxy)-8-azabicyclo[3.2.1]octan-8-yl)prop-2-en-1-one], the EC50 at Ba/F3 stable cells [1], on Ba/F3 stable cells [2], on Ba/F3 stable cells [3], at Ba/F3 stable cells [4], on Ba/F3 stable cells [5] and at Ba/F3 stable cells [6] was ≤ 200 nM throughout.

Take `C=CC(=O)N1C2CCCC1CC(Oc1cc3c(Nc4cccc5c4CCC5)ncnc3cc1OC)C2` (stereo not drawn) [Compound 182, 1-(3-((4-((2,3-dihydro-1H-inden-4-yl)amino)-7-methoxyquinazolin-6-yl)oxy)-9-azabicyclo[3.3.1]nonan-9-yl)prop-2-en-1-one]: the EC50 was ≤ 200 nM at Ba/F3 stable cells [1]; > 1000 nM on Ba/F3 stable cells [2]; 200 to 1000 nM at Ba/F3 stable cells [3]; 200 to 1000 nM on Ba/F3 stable cells [4]; > 1000 nM on Ba/F3 stable cells [5]; 200 to 1000 nM at Ba/F3 stable cells [6].

As for `C=CC(=O)N1C2CCC1CC(Oc1cc3c(Nc4cccc5c4CCC5)ncnc3cc1OC)C2` (stereo not drawn) [Compound 183, 1-(3-((4-((2,3-dihydro-1H-inden-4-yl)amino)-7-methoxyquinazolin-6-yl)oxy)-8-azabicyclo[3.2.1]octan-8-yl)prop-2-en-1-one], the EC50 is ≤ 200 nM at Ba/F3 stable cells [1]; 200 to 1000 nM at Ba/F3 stable cells [2]; ≤ 200 nM at Ba/F3 stable cells [3]; ≤ 200 nM on Ba/F3 stable cells [4]; 200 to 1000 nM on Ba/F3 stable cells [5]; ≤ 200 nM on Ba/F3 stable cells [6].

As for `C=CC(=O)N1CCCC(c2ccc3ncnc(Nc4ccc(Cl)c(Cl)c4F)c3c2)C1` (stereo not drawn) [Compound 184, 1-(3-(4-((3,4-dichloro-2-fluorophenyl)amino)quinazolin-6-yl)piperidin-1-yl)prop-2-en-1-one], the concentration for a half-maximal effect (EC50) at Ba/F3 stable cells [1] is ≤ 200 nM; on Ba/F3 stable cells [2] it was ≤ 200 nM; at Ba/F3 stable cells [3] it was 200 to 1000 nM; on Ba/F3 stable cells [4] it was > 1000 nM; on Ba/F3 stable cells [5], 200 to 1000 nM; at Ba/F3 stable cells [6], ≤ 200 nM.

As to `C=CC(=O)N1CCCC(c2cc3c(Nc4ccc(Cl)c(Cl)c4F)ncnc3cc2OC)C1` (stereo not drawn) [Compound 185, 1-(3-(4-((3,4-dichloro-2-fluorophenyl)amino)-7-methoxyquinazolin-6-yl)piperidin-1-yl)prop-2-en-1-one], the EC50 at Ba/F3 stable cells [1] is ≤ 200 nM; on Ba/F3 stable cells [2] it was 200 to 1000 nM; on Ba/F3 stable cells [3], ≤ 200 nM; on Ba/F3 stable cells [4], ≤ 200 nM; on Ba/F3 stable cells [5], 200 to 1000 nM; at Ba/F3 stable cells [6] it was ≤ 200 nM.

Take `C=CC(=O)N1CCC=C(c2cc3c(Nc4ccc(Cl)c(Cl)c4F)ncnc3cc2OC)C1` [Compound 186, 1-(5-(4-((3,4-dichloro-2-fluorophenyl)amino)-7-methoxyquinazolin-6-yl)-3,6-dihydropyridin-1(2H)-yl)prop-2-en-1-one]: the EC50 on Ba/F3 stable cells [1] is ≤ 200 nM; on Ba/F3 stable cells [2], 200 to 1000 nM; at Ba/F3 stable cells [3], ≤ 200 nM; on Ba/F3 stable cells [4] it was > 1000 nM; at Ba/F3 stable cells [5], 200 to 1000 nM; at Ba/F3 stable cells [6] it was ≤ 200 nM.
